The values below come from PMC6264278, “Corydaline Inhibits Multiple Cytochrome P450 and UDP-Glucuronosyltransferase Enzyme Activities in Human Liver Microsomes” (Molecules, 2011).

Type in all cases: in vitro ADME
One data set deals with CYP3A. The data set is described as follows: Time- and concentration-dependent inactivation of CYP3A-mediated midazolam hydroxylation in human liver microsomes. The conditions noted are these: probe midazolam (1'-hydroxylation), estimated from kobs vs corydaline concentration (10-150 μM). The procedure: The inhibitory effects of corydaline toward seven major human CYP isoforms and four major human UGT isoforms were evaluated using cocktail CYP probe substrates and each UGT probe substrate in human liver microsomes, respectively. […] To determine whether midazolam metabolism is inhibited by corydaline, we performed time- and concentration-dependent inactivation assays in human liver microsomes. […] Values for kobs were plotted against corydaline concentration and used for estimation of maximal rates (kinact) and Ki values in human liver microsomes (Figure 2b).

The target of another data set is T1, CYP2C9 (Homo sapiens, UniProt P11712).
T1 construct: using pooled human liver microsomes; tissue BD Gentest Co. H161; host or cells: pooled human liver microsomes
T1 sequence (P11712 whole entry): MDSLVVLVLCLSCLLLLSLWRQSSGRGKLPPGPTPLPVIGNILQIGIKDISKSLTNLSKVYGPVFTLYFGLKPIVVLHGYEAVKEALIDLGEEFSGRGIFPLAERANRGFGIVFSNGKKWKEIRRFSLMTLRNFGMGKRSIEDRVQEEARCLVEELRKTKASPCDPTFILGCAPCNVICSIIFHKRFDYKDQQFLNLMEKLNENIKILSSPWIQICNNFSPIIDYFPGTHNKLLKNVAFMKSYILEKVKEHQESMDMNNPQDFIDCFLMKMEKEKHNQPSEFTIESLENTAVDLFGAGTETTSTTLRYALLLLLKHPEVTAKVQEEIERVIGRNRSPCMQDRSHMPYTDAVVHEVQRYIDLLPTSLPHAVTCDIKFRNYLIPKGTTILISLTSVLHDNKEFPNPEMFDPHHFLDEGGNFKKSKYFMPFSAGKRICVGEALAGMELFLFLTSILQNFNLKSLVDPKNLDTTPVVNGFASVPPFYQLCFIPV
Briefly: CYP2C9 diclofenac 4-hydroxylation inhibition in pooled human liver microsomes. The conditions noted are these: for IC50: 10 μM diclofenac, mean ± SD, n = 3. The procedure:
(§1) Phenacetin O-deethylase, coumarin 7-hydroxylase, amodiaquine N-deethylase, diclofenac 4-hydroxylase, S-mephenytoin 4-hydroxylase, bufuralol hydroxylase, and midazolam 1’-hydroxylase activities were determined as probe activities for CYP1A2, CYP2A6, CYP2C8, CYP2C9, CYP2C19, CYP2D6, and CYP3A4, respectively, using cocktail incubation and liquid chromatography-tandem mass spectrometry (LC/MS/MS). The incubation mixtures were prepared in a total volume of 200 μL, as follows: pooled human liver microsomes (0.25 mg/mL), 1.3 mM NADPH, 3.3 mM MgCl2, 50 mM potassium phosphate buffer (pH 7.4), and a cocktail of probe substrates and various concentrations of corydaline (1−200 μM). The substrates were used at concentrations approximately equal to their respective Km values: 50 μM phenacetin, 2.5 μM coumarin, 2.5 μM amodiaquine, 10 μM diclofenac, 100 μM S-mephenytoin, 5 μM bufuralol, and 2.5 μM midazolam. After a 3-min pre-incubation period at 37 °C, the reactions were initiated by addition of an NADP generating system and incubated for 20 min at 37 °C in a shaking water bath. After incubation, the reaction was stopped by placement of the tubes on ice and addition of 100 μL of ice-cold methanol containing internal standards (^13C2,^15N-acetaminophen for acetaminophen and N-desethylamodiaquine, d5-7-hydroxycoumarin for 7-hydroxycoumarin, ^13C6-4-hydroxydiclofenac for 4-hydroxydiclofenac, d3-4-hydroxy-mephenytoin for 4-hydroxymephenytoin and hydroxymidazolam, d9-1-hydroxybufuralol for 1-hydroxybufuralol). The incubation mixtures were then centrifuged at 13,000 × g for 5 min. All incubations were performed in triplicate and the mean values were used. […] The reaction was started by addition of a cocktail of CYP probe substrates.
All 7 metabolites produced from the cocktail of CYP isoform-specific substrates were simultaneously determined by LC/MS/MS [25]. The system consisted of a tandem quadrupole mass spectrometer (TSQ Quantum Access, ThermoFisher Scientific, San Jose, CA, USA) coupled with a Nanospace SI-2 LC system. Separation was performed on an Atlantis dC18 column (5 μm, 2.1 mm i.d. ×100 mm, Waters, Milford, MA, USA) using the gradient elution of a mixture of 5% methanol in 0.1% formic acid (mobile phase A) and 95% methanol in 0.1% formic acid (mobile phase B) at a flow rate of 0.25 mL/min: 10% mobile phase B for 1 min, 10% to 95% mobile phase B for 1 min, 95% mobile phase B for 5 min. The column and autosampler temperatures were 50 and 6 °C, respectively. After 1.5 min, the LC eluent was diverted from waste to the mass spectrometer fitted with the electrospray ionization (ESI) source and operated in positive ion mode. […] Quantification was performed by selected reaction monitoring (SRM) of the [M+H]^+ ion and the related product ion for each metabolite. […]
(§2) Reactions were initiated by addition of NADPH at 37 °C and stopped after 15 min by placement of the incubation tubes on ice and addition of ice-cold methanol (100 μL) containing an internal standard (2.0 μg/mL ^13C6-4-hydroxydiclofenac for diclofenac, 0.5 μg/mL d3-4-hydroxymephenytoin for mephenytoin, or 0.5 μg/mL d9-1-hydroxy-bufuralol for bufuralol). The incubation mixtures were centrifuged at 13,000 × g for 5 min, and aliquots (5 μL) of the supernatants were analyzed by LC/MS/MS. […] Aliquots (5 μL) were analyzed by LC/MS/MS. […]
For orientation: Liver microsomes are vesicles of endoplasmic reticulum, rich in cytochrome P450 enzymes.

The target in a further data set is T2, CYP2C19 (Homo sapiens, UniProt P33261).
T2 construct: using pooled human liver microsomes; tissue BD Gentest Co. H161; host or cells: pooled human liver microsomes
T2 sequence (P33261 whole entry): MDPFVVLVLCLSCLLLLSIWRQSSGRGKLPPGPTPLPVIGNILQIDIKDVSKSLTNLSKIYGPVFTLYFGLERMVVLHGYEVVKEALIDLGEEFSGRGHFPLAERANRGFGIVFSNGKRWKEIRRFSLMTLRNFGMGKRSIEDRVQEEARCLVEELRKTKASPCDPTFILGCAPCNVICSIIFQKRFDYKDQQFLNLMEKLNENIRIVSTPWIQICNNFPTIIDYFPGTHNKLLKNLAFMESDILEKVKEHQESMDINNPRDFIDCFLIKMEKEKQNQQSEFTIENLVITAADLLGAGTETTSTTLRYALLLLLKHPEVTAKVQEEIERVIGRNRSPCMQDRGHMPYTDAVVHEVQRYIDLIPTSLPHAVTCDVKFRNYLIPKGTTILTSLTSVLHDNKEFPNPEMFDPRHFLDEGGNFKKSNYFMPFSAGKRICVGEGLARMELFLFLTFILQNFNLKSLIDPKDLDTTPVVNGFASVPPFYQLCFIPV
The data set is described as follows: CYP2C19 S-mephenytoin 4'-hydroxylation inhibition in pooled human liver microsomes. The conditions noted are these: for IC50: 100 μM S-mephenytoin, mean ± SD, n = 3. The procedure: as §1
All 7 metabolites produced from the cocktail of CYP isoform-specific substrates were simultaneously determined by LC/MS/MS [25]. The system consisted of a tandem quadrupole mass spectrometer (TSQ Quantum Access, ThermoFisher Scientific, San Jose, CA, USA) coupled with a Nanospace SI-2 LC system. […] Quantification was performed by selected reaction monitoring (SRM) of the [M+H]^+ ion and the related product ion for each metabolite. […]
as §2

[1] abbreviates: Lineweaver, Dixon and secondary reciprocal plots.

Read-outs that look alike come from different tables or passages of the source.

In the case of `COc1cc2c(cc1OC)C1C(C)c3ccc(OC)c(OC)c3CN1CC2` (centres unmarked) [Corydaline, 2,3,9,10-tetramethoxy-13-methyl-5,8,13,13a-tetrahydro-6H-isoquino[3,2-a]isoquinoline], in the data set with CYP3A (read-out: apparent Ki of inactivation, CYP3A midazolam hydroxylation), the KI (inactivation) was 30 µM. The kinact (commonly the rate constant of inactivation at saturating inhibitor) in the data set on CYP3A (read-out: maximal rate of inactivation (kinact), CYP3A midazolam hydroxylation (converted)) is 0.00107 s⁻¹. Besides, the “inhibition mode, CYP2C9 diclofenac 4-hydroxylation” value against CYP2C9 (setting [1]) is “noncompetitive”. Besides, the Ki (commonly the dissociation constant of the complex between target and ligand, obtained from inhibition or displacement) amounted to 7.1 ± 0.4 µM at CYP2C9 (human liver microsomes, 1-10 μM diclofenac) and 1.7 ± 0.5 µM at CYP2C19 (human liver microsomes, 10-40 μM S-mephenytoin). The Ki at 15 min on CYP2C9 (pH 7.4, probe diclofenac (1-10 μM), 4-hydroxylation, human liver microsomes, 1-10 μM diclofenac) came out at 7 µM. Moreover, the IC50 (in general, the midpoint of a concentration-inhibition curve) worked out at 26.2 ± 4.6 µM on CYP2C9 (pooled human liver microsomes (H161), read-out: IC50 no preincubation, CYP2C9 diclofenac 4-hydroxylation); 30.6 ± 4.1 µM at CYP2C9 (pre-incubated 30 min with NADPH, read-out: IC50 with preincubation, CYP2C9 diclofenac 4-hydroxylation); 11.7 ± 1.4 µM on CYP2C19 (pooled human liver microsomes (H161), read-out: IC50 no preincubation, CYP2C19 S-mephenytoin 4'-hydroxylation); 19.2 ± 1.8 µM at CYP2C19 (pre-incubated 30 min with NADPH, read-out: IC50 with preincubation, CYP2C19 S-mephenytoin 4'-hydroxylation). In addition, the “inhibition mode, CYP2C19 S-mephenytoin 4'-hydroxylation” value against CYP2C19 (setting [1]) is “competitive”.
